Experimental data as given in publication PMC9884089 (Journal of Medicinal Chemistry, 2023).

Assays:
TNKS2 = target: T1, TNKS2 (Homo sapiens, UniProt Q9H2K2); test: biochemical; details: read-out: TNKS2 IC50; > = less than 50% inhibition at highest concentration
T1 sequence (Q9H2K2 1-1166): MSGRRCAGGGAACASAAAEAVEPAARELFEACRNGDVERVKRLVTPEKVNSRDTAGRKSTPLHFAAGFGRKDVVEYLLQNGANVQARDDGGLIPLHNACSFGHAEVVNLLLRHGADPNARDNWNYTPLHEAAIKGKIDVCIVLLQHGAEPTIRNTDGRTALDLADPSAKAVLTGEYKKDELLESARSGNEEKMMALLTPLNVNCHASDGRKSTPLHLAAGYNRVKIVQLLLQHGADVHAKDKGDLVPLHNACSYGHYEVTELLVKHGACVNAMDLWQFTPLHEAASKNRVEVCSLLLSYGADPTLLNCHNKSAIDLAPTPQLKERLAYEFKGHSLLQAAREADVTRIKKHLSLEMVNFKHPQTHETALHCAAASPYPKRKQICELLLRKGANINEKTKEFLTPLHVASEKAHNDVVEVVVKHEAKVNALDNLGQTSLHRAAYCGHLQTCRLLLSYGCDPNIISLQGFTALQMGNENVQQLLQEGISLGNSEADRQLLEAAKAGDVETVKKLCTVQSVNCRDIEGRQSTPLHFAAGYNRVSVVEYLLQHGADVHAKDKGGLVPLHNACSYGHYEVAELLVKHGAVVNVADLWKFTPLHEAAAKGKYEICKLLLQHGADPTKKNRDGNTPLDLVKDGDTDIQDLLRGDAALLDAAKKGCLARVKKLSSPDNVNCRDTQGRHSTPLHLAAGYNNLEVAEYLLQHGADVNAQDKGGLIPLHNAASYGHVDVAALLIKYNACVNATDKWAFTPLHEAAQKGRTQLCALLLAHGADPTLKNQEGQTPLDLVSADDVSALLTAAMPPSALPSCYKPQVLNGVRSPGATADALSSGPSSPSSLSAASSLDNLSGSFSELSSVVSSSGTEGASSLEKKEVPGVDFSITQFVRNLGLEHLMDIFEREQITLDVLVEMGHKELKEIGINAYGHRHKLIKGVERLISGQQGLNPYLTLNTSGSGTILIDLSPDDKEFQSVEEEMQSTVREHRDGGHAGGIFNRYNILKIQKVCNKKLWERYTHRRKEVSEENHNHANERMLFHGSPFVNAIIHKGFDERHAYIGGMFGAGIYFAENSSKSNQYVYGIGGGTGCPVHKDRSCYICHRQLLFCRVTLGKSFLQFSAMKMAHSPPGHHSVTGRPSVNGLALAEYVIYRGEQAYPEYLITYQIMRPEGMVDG
Protocol: The proteins used in Tables 1–3 were produced as described earlier. Dockerin constructs to allow enhanced activity assays for mono-ARTs (Table 4) were produced in Escherichia coli with an N-terminal maltose binding protein (MBP) and a C-terminal dockerin domain from Hungateiclostridium thermocellum Cel48s as described recently.[47]
Inhibition experiments were performed using a homogenous assay measuring NAD+ consumption.[80]−[82] Reactions were carried out in quadruplicate, and IC50 curves were fitted using sigmoidal dose response curve (four variables) in GraphPad Prism version 8.02. […] Assay conditions for PARP2, TNKS2, PARP10, and PARP15 (Tables 1–3) were recently reported.[44] The conditions for the proximity-enhanced mono-ART assays (Table 4) were also reported recently.[47] PARP6 (400 nM) inhibition was measured using the standard buffer (50 mM sodium phosphate pH 7.0) for the enhanced activity assay using 500 nM NAD^+ and 18 h incubation in r.t..

TNKS1 = target: T2, TNKS1 (Homo sapiens, UniProt O95271); test: PARP profiling activity assay, TNKS1; type: biochemical
T2 sequence (O95271 1-1327): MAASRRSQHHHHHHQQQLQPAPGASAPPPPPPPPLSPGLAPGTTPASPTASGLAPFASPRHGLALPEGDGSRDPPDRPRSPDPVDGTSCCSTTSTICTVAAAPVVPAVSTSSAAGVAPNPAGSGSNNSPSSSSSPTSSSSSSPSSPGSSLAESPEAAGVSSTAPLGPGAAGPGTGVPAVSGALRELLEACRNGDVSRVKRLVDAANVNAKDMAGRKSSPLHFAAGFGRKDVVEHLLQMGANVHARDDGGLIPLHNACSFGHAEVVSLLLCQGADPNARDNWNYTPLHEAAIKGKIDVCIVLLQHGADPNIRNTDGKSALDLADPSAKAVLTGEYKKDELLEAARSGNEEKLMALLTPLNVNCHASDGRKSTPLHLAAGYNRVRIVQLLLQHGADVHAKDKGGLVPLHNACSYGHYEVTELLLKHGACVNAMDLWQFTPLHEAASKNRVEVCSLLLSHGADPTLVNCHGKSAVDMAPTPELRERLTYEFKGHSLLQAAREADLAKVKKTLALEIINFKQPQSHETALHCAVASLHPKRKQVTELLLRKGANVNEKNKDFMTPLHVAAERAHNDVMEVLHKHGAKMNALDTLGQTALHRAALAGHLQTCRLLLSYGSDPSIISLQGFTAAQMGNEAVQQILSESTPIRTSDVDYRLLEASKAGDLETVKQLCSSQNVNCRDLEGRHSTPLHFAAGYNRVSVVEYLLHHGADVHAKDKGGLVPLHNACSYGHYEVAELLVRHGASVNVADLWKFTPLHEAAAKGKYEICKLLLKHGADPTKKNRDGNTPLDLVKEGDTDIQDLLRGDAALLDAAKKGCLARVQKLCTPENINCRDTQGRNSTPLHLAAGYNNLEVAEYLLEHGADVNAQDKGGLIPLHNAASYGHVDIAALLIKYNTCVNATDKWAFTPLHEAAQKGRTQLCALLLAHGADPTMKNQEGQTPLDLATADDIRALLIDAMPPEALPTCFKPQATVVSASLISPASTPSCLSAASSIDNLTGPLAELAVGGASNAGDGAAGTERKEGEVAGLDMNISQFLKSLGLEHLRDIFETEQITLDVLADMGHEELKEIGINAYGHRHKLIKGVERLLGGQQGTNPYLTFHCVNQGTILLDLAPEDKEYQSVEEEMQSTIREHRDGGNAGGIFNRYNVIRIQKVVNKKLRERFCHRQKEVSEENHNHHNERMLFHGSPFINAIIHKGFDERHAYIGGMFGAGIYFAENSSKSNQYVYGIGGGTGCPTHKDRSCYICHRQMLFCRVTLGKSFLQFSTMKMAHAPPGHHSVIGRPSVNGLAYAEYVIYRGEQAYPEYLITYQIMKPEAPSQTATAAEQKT

| SMILES | IC50 (TNKS2) | IC50 (TNKS1) |
| --- | --- | --- |
| Cc1ccc2c(c1)sc1nnc(N)n12 [Compound 21, 7-Methyl[1,2,4]triazolo[3,4-b][1,3]benzothiazol-3-amine] | 5.7 µM | 2.1 µM |
| COc1ccc(OC)c2c1sc1nnc(N)n12 [Compound 27, 5,8-Dimethoxy[1,2,4]triazolo[3,4-b][1,3]benzothiazol-3-amine] | 10 µM | 5.4 µM |
